In article PMC11207335, “In Vitro Metabolism and Transport Characteristics of Zastaprazan” (Pharmaceutics, 2024):

Experiments:
[1] = molecular target: T1, OCT1 (Homo sapiens, UniProt O15245); experiment: Uptake into HEK293 cells expressing OCT1; conditions: for Uptake Rate / Fold-Change: 6 μM; for Substrate: OCT1; for Fold-Change: vs HEK293-mock
T1 sequence (O15245 1-554): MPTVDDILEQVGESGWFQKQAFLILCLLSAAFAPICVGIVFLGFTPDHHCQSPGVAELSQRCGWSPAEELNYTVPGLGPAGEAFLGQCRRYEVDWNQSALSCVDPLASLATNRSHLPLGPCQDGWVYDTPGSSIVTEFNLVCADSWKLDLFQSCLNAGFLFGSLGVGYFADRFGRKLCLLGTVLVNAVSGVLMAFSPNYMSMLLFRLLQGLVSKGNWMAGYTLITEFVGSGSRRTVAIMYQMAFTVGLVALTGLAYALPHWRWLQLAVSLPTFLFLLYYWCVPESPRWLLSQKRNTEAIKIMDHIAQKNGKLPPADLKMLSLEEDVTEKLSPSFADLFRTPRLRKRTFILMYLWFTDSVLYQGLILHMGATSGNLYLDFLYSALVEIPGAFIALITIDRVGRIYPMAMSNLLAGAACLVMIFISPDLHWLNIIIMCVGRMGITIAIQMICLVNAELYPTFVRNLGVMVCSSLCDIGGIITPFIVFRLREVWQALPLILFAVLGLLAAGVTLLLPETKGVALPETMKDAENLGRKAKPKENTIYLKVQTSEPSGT

[2] = system: HEK293-mock cells; experiment: Uptake into HEK293-mock cells; conditions: 6 μM
[3] = molecular target: T2, BCRP (Homo sapiens, UniProt Q9UNQ0); experiment: Permeability in LLC-PK1-BCRP cells; format: in vitro ADME; conditions: for Substrate: BCRP
T2 construct: host or cells: LLC-PK1 (porcine kidney cells)
T2 sequence (Q9UNQ0 1-655): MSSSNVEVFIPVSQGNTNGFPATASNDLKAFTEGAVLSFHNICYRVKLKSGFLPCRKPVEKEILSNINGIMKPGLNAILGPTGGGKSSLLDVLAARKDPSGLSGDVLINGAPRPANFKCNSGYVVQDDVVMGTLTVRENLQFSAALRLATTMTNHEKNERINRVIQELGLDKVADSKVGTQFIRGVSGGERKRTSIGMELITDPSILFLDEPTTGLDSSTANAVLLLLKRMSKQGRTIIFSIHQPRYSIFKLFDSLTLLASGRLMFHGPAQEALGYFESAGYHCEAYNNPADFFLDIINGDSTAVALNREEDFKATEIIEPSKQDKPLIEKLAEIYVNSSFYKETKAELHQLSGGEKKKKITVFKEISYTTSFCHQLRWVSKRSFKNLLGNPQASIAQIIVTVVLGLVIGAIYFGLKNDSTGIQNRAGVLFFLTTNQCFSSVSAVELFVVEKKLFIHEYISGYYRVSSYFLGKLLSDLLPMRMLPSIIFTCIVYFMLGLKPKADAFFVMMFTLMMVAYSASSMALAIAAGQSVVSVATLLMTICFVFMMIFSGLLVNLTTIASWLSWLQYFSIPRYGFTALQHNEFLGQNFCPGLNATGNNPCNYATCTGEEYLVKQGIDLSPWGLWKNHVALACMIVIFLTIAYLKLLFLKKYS
Protocol: LLC-PK1-P-gp or BCRP cells were seeded on collagen-coated 24-transwell membranes at a density of 2.5 × 10^5 cells/mL and maintained at 37 °C in a humidified atmosphere with 5% CO2/95% air for 5 days in Medium 199 supplemented with 10% […], 50 μg/mL of gentamycin, and 50 μg/mL of hygromycin. The culture medium was replaced every other day. On the day of the experiment, the growth medium was discarded, and the attached cells were washed with prewarmed HBSS (pH 7.4) and preincubated with HBSS for 20 min at 37 °C. […] Aliquots (0.1 mL) in the apical side were transferred to clean tubes every 15 min for 1 h and replaced with an equal volume of fresh HBSS.
LLC-PK1-P-gp or BCRP cells were seeded on collagen-coated 24-transwell membranes at a density of 2.5 × 10^5 cells/mL and cultured for 5 days. The growth medium was discarded on the day of the experiment, and the attached cells were washed with prewarmed HBSS (pH 7.4) and preincubated with HBSS for 20 min at 37 °C. […] Aliquots (0.1 mL) in the apical side were transferred to clean tubes every 15 min for 1 h and replaced with an equal volume of fresh HBSS. Aliquots (30 μL) of each sample were vortex-mixed with 90 μL of IS solution for 1 min, and then centrifugation was performed at 13,500 rpm at 4 °C for 5 min. Aliquots (5 μL) of the supernatant were injected into the LC-MS/MS for analysis.
The permeability (Papp) was calculated from the following equation [23, 24]: Papp(cm/s)=transport ratenmol/s/JP−1366 or M1 concentration (μM)×surface area of membrane (cm^2)

[4] = molecular target: T3, OAT1 (Homo sapiens, UniProt Q4U2R8); experiment: Uptake into HEK293 cells expressing OAT1; conditions: for Uptake Rate / Fold-Change: 6 μM; for Substrate: OAT1; for Fold-Change: vs HEK293-mock
T3 sequence (Q4U2R8 1-563): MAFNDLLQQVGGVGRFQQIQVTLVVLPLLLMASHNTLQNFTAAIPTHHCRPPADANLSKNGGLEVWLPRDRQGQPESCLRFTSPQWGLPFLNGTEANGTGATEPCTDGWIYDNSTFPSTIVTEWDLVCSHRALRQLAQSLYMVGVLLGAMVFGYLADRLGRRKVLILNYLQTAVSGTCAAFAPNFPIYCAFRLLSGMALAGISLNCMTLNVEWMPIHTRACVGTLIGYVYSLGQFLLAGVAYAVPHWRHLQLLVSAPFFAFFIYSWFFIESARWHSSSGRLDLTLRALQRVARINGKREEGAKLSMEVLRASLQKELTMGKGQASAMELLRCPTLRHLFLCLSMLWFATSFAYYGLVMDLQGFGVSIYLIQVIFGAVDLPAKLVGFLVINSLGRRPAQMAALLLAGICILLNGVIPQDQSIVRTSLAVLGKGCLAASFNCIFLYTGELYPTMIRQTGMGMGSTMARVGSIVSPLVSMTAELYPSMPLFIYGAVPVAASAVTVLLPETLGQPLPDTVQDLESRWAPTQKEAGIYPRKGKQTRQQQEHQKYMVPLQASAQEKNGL

[5] = pig, pH 7.4, with Ko134 1 μM, LLC-PK1-BCRP, Ko134 1 μM
[6] = pig, pH 7.4, LLC-PK1-BCRP, Control

Uptake Rate ([1]; HEK293-OCT1, cimetidine 100 μM)	Uptake Rate ([1]; HEK293-OCT1, control)	Substrate [1]	Uptake Rate ([2]; cimetidine 100 μM)	Uptake Rate ([2]; control)	Uptake Rate ([2]; probenecid 20 μM)	Uptake Rate ([2]; rifampin 20 μM)	Substrate [3]	Papp A→B at 1 h, 4 µM [3, 5]	Papp B→A at 1 h, 4 µM [3, 5]	Papp A→B at 1 h, 4 µM [3, 6]	Papp B→A at 1 h, 4 µM [3, 6]	Uptake Rate ([4]; HEK293-OAT1, control)	Uptake Rate ([4]; HEK293-OAT1, probenecid 20 μM)	Substrate [4]	Structure (SMILES)	further results
82.01 ± 3.72 pmol/min/10^5 Cells	82.43 ± 3.59 pmol/min/10^5 Cells	No	55.35 ± 2.24 pmol/min/10^5 Cells	51.53 ± 3.16 pmol/min/10^5 Cells	54.22 ± 1.90 pmol/min/10^5 Cells	57.80 ± 0.89 pmol/min/10^5 Cells	No	13.6 ± 0.54 ×10⁻⁶ cm/s	22.6 ± 0.47 ×10⁻⁶ cm/s	14.8 ± 1.23 ×10⁻⁶ cm/s	20.5 ± 3.95 ×10⁻⁶ cm/s	68.04 ± 2.96 pmol/min/10^5 Cells	61.04 ± 5.29 pmol/min/10^5 Cells	No	Cc1cccc(C)c1CNc1cc(C(=O)N2CCC2)cn2c(C)c(C)nc12 [JP-1366, 1-azetidinyl(8-(((2,6-dimethylphenyl)methyl)amino)-2,3-dimethylimidazo(1,2-a)pyridin-6-yl)methanone]	
82.01 ± 3.72 pmol/min/10^5 Cells	82.43 ± 3.59 pmol/min/10^5 Cells	No	55.35 ± 2.24 pmol/min/10^5 Cells	51.53 ± 3.16 pmol/min/10^5 Cells	54.22 ± 1.90 pmol/min/10^5 Cells	57.80 ± 0.89 pmol/min/10^5 Cells	No	32 ± 2.84 ×10⁻⁶ cm/s	47.3 ± 1.39 ×10⁻⁶ cm/s	31.7 ± 3.39 ×10⁻⁶ cm/s	33.8 ± 3.45 ×10⁻⁶ cm/s	68.04 ± 2.96 pmol/min/10^5 Cells	61.04 ± 5.29 pmol/min/10^5 Cells	No	Cc1cccc(CO)c1CNc1cc(C(=O)N2CCC2)cn2c(C)c(C)nc12 [M1, azetidin-1-yl(8-((2-(hydroxymethyl)-6-methyl-benzyl)amino)-2,3-dimethylimidazo[1,2-a]pyridin-6-yl)methanone]	Fold-Change ([1]; HEK293-OCT1, cimetidine 100 μM): 1.6; Fold-Change ([1]; HEK293-OCT1, control): 1.6; Fold-Change ([2]; cimetidine 100 μM): 1.1; Fold-Change ([2]; control): 1.0; Fold-Change ([2]; probenecid 20 μM): 1.1; Fold-Change ([2]; rifampin 20 μM): 1.1; efflux ratio at 1 h ([3]; pig, pH 7.4, LLC-PK1-BCRP, concentration range of 0.3–85 μM, read-out: ER): 1.1 to 1.7; Fold-Change ([4]; HEK293-OAT1, control): 1.3; Fold-Change ([4]; HEK293-OAT1, probenecid 20 μM): 1.2
